How the values were obtained:
[1] = Moisture sorption isotherm (hygroscopicity); assay type: physicochemical; conditions: FIG. 10
[2] = Solution mediated transformation of aripiprazole forms (thermodynamic stability); assay type: physicochemical; conditions: at temperatures at and below about 60° C.

In the case of O=C1CCc2ccc(OCCCCN3CCN(c4cccc(Cl)c4Cl)CC3)cc2N1 [Form X of aripiprazole, 7-[4-[4-(2,3-dichlorophenyl)-1-piperazinyl]butoxy]-3,4-dihydro-2(1H)-quinolinone], the “conversion into a hydrated form of aripiprazole” value [1] is reported as “does not substantially convert into a hydrated form of aripiprazole”, the hygroscopicity [1] is reported as “low hygroscopicity” and the “thermodynamic stability (Gibbs free energy relative to other forms of aripiprazole)” value [2] is reported as “lowest Gibbs free energy”.

Reference: patent US8008490B2, “Polymorphic forms of aripiprazole and method” (Sandoz AG, priority 2005, dated 2011)
